Experimental data published in PubChem BioAssay (NCI).
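These data come from cells grown in 96-well plates and exposed to compound for 48 hours at five concentrations. TGI denotes the concentration required for complete inhibition of growth.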

Assays:
Test in all cases: inhibition of tumour cell growth, NCI panel, 48 h
786-0 renal = test system: 786-0 renal
A498 renal = test system: A498 renal
A549 NSCLC = test system: A549 NSCLC
ACHN renal = test system: ACHN renal
BT-549 breast = test system: BT-549 breast
CAKI-1 renal = test system: CAKI-1 renal
CCRF-CEM leukemia = test system: CCRF-CEM leukemia
COLO 205 colon = test system: COLO 205 colon
DU-145 prostate = test system: DU-145 prostate
EKVX NSCLC = test system: EKVX NSCLC
HCT-116 colon = test system: HCT-116 colon
HCT-15 colon = test system: HCT-15 colon
HL-60(TB) leukemia = test system: HL-60(TB) leukemia
HOP-62 NSCLC = test system: HOP-62 NSCLC
HOP-92 NSCLC = test system: HOP-92 NSCLC
HS 578T breast = test system: HS 578T breast
HT29 colon = test system: HT29 colon
IGROV1 ovarian = test system: IGROV1 ovarian
K-562 leukemia = test system: K-562 leukemia
KM12 colon = test system: KM12 colon
LOX IMVI melanoma = test system: LOX IMVI melanoma
M14 melanoma = test system: M14 melanoma
MALME-3M melanoma = test system: MALME-3M melanoma
MCF7 breast = test system: MCF7 breast
MDA-MB-231 breast = test system: MDA-MB-231 breast
MDA-MB-435 = test system: MDA-MB-435
MDA-N = test system: MDA-N
MOLT-4 leukemia = test system: MOLT-4 leukemia
NCI-H226 lung = test system: NCI-H226 lung
NCI-H23 lung = test system: NCI-H23 lung
NCI-H460 lung = test system: NCI-H460 lung
NCI-H522 lung = test system: NCI-H522 lung
NCI/ADR-RES ovarian = test system: NCI/ADR-RES ovarian
OVCAR-3 ovarian = test system: OVCAR-3 ovarian
OVCAR-4 ovarian = test system: OVCAR-4 ovarian
OVCAR-5 ovarian = test system: OVCAR-5 ovarian
OVCAR-8 ovarian = test system: OVCAR-8 ovarian
PC-3 prostate = test system: PC-3 prostate
RPMI-8226 leukemia = test system: RPMI-8226 leukemia
RXF 393 renal = test system: RXF 393 renal
SF-268 CNS = test system: SF-268 CNS
SF-295 CNS = test system: SF-295 CNS
SF-539 CNS = test system: SF-539 CNS
SK-MEL-2 melanoma = test system: SK-MEL-2 melanoma
SK-MEL-28 melanoma = test system: SK-MEL-28 melanoma
SK-MEL-5 melanoma = test system: SK-MEL-5 melanoma
SK-OV-3 ovarian = test system: SK-OV-3 ovarian
SN12C renal = test system: SN12C renal
SNB-75 CNS = test system: SNB-75 CNS
SR leukemia = test system: SR leukemia
SW-620 colon = test system: SW-620 colon
T-47D breast = test system: T-47D breast
TK-10 renal = test system: TK-10 renal
U251 CNS = test system: U251 CNS
UACC-257 melanoma = test system: UACC-257 melanoma
UACC-62 melanoma = test system: UACC-62 melanoma
UO-31 renal = test system: UO-31 renal

Measured: TGI

O=c1c2cc([N+](=O)[O-])ccc2nc2n1CCCCC2
> 100 µM: all assays above
